Results reported in US10550073B2, “Benzamide derivative” (CSPC ZHONGQI PHARMACEUTICAL TECHNOLOGY (SHIJIAZHUANG) CO., …, priority 2015, dated 2020).

Legend:
TNF-α = assay: In vitro cell experiment: LPS-stimulated TNF-α release in THP-1 cells (ELISA); assay type: cell-based; details: Homo sapiens; TNF-α in supernatant of THP-1 cells, compound 2 h then LPS 10 μg/ml 2 h
From the text: I. In Vitro Cell Experiment
Cells: human monocytic leukemia THP-1 cells (obtained from the Shanghai Cell Bank of Chinese Academy of Sciences).
Lipopolysaccharides: from Escherichia coli O55: B5, L2880 (Sigma).
Kit: Human TNF-α Elisa MAX Deluxe Set, 430206 (Biolegend)

[1] = Pharmacokinetics experiment, oral administration to SD rats; assay type: in vivo; details: Sprague-Dawley (SD), rat, plasma
Method: IV. Pharmacokinetics Experiment
Experimental Method: SD rats were orally administrated the compounds and the blood samples were taken from the eye orbit of the rat sat different time intervals after administration (0.25, 0.5, 1, 2, 4, 6, 8, 24, 48 h). The collected whole blood was anticoagulant by EDTA (Ethylene Diamine Tetraacetic Acid Sodium) and 3000 g of samples were centrifugated to obtain the rats' plasma samples, methanol or ethanol was used to precipitate proteins, the drug concentration of the rats' plasma samples was determined, the drug concentration-time curve was plotted to calculate the pharmacokinetic parameters. The pharmacokinetic behavior in rats after administration was described by non-compartmental models statistical moment parameter.
The pharmacokinetic experiments were carried out for the compounds.

CYP450, 2C9 enzymes = CYP450, 2C9 enzymes (Homo sapiens (Human), UniProt P11712); assay: CYP450 enzyme inhibition test in human liver microsome; assay type: in vitro ADME; details: CYP450 2C9, LC-MS/MS
p38a = p38a (Homo sapiens (Human), UniProt Q16539); assay: Assay of p38 kinase activity (fluorescence, peptide substrate); assay type: biochemical; details: 40 nM p38a, 100 μM ATP, 90 minutes
Method: II. Assay of p38 Kinase Activity
Experimental Method: 40 nM p38a was added into a reaction buffer, which include 20 mM HEPES (4-hydroxyethylpiperazine ethanesulfonic acid), 5 mM MgCl2 and 1 mM DTT (dithiothreitol) at pH 7.4. 40 μM phosphorylated peptide substrate was added, followed by different concentrations of drugs and 100 μM ATP (adenosine triphosphate), and reacted for 90 minutes in dark. […] The IC50 values of the compounds were obtained according to the fluorescence values.

CYP450, 2C9 enzymes, sequence (P11712 whole entry): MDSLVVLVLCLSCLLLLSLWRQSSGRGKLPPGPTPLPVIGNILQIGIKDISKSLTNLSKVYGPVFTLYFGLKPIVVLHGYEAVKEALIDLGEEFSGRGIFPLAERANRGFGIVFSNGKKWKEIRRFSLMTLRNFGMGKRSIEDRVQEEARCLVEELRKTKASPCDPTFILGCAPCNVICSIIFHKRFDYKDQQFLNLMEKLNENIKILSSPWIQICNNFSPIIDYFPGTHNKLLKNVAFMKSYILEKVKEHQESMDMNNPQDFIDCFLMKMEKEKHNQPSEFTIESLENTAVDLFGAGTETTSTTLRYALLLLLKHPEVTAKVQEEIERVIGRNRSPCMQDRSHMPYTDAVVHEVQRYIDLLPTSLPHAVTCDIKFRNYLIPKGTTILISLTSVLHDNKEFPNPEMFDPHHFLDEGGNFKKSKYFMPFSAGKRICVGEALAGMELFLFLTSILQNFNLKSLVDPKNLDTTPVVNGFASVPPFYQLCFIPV
p38a, sequence (Q16539 whole entry): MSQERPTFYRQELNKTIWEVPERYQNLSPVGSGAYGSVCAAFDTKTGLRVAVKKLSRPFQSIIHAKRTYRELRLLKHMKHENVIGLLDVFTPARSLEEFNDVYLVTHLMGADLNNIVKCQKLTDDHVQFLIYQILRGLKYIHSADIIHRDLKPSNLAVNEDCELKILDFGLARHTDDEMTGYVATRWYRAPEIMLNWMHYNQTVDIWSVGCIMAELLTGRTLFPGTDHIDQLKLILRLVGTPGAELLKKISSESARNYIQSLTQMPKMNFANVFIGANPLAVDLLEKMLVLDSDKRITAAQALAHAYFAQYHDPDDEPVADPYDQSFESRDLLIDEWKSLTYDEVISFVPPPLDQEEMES

Compound	IC50 (TNF-α) [nM]	AUC(0-t) [1] [ng·h/mL]	IC50 (CYP450, 2C9 enzymes) [nM]	IC50 (p38a) [nM]
Cc1c(F)cc(C(=O)NC2CC2)cc1-c1ccc(C(=O)NCC(C)(C)C)cn1 [Comparative example, 6-(5-(cyclopropylcarbamoyl)-3-fluoro-2-methylphenyl)-N-neopentylnicotinamide, reference compound]	10 to 20	9630		
Cc1c(F)cc(C(=O)NC2CC2)cc1-c1ccc(C(=O)NCC(C)C)nn1 [Example 57, 6-(5-(cyclopropylcarbamoyl)-3-fluoro-2-methylphenyl)-N-isobutylpyridazin-3-carboxamide]	< 5	22100	> 50000	< 5
Cc1c(F)cc(C(=O)NC2CC2)cc1-c1ccc(C(=O)NCC(C)(C)C)nn1 [Example 59, 6-(5-(cyclopropylcarbamoyl)-3-fluoro-2-methylphenyl)-N-neopentylpyridazin-3-carboxamide]	< 5	11300	> 50000	< 5
Cc1c(F)cc(C(=O)NC2CC2)cc1-c1ccc(C(=O)NCC2CC2)nn1 [Example 61, 6-(5-(cyclopropylcarbamoyl)-3-fluoro-2-methylphenyl)-N-(cyclopropylmethyl) pyridazin-3-carboxamide]	< 5	12200	> 50000	< 5
